Reference: BindingDB's records for doi:10.1016/S0960-894X(97)00319-3 (1997)

experiment: Inhibition of [125I]ET1 binding to porcine kidney inner medulla membranes

SMILES | IC50
COc1ccc(Cn2c(=O)c(C(=O)O)c(-c3ccc4c(c3)OCO4)c3ccccc32)cc1 [4-Benzo[1,3]dioxol-5-yl-1-(4-methoxy-benzyl)-2-oxo-1,2-dihydro-quinoline-3-carboxylic acid] | 6800 nM
O=C(O)c1c(-c2ccc3c(c2)OCO3)c2ccccc2n(Cc2ccccc2)c1=O [4-Benzo[1,3]dioxol-5-yl-1-benzyl-2-oxo-1,2-dihydro-quinoline-3-carboxylic acid] | > 10000 nM
COc1ccccc1Cn1c(=O)c(C(=O)O)c(-c2ccc3c(c2)OCO3)c2c(OC)c(OC)ccc21 [4-Benzo[1,3]dioxol-5-yl-5,6-dimethoxy-1-(2-methoxy-benzyl)-2-oxo-1,2-dihydro-quinoline-3-carboxylic acid] | 2600 nM
CCc1ccc2c(c1)c(-c1ccc3c(c1)OCO3)c(C(=O)O)c(=O)n2Cc1ccccc1OC [4-Benzo[1,3]dioxol-5-yl-6-ethyl-1-(2-methoxy-benzyl)-2-oxo-1,2-dihydro-quinoline-3-carboxylic acid] | 1300 nM

Compounds with a lower IC50, results first:

IC50 | SMILES
940 nM | COc1ccccc1Cn1c(=O)c(C(=O)O)c(-c2ccc3c(c2)OCO3)c2ccccc21 [4-Benzo[1,3]dioxol-5-yl-1-(2-methoxy-benzyl)-2-oxo-1,2-dihydro-quinoline-3-carboxylic acid]
540 nM | CCOc1ccc2c(c1)c(-c1ccc(OC)cc1OC)c(C(=O)O)c(=O)n2Cc1ccccc1OC [4-(2,4-Dimethoxy-phenyl)-6-ethoxy-1-(2-methoxy-benzyl)-2-oxo-1,2-dihydro-quinoline-3-carboxylic acid]
500 nM | CCOc1ccc2c(c1)c(-c1ccc(OC)cc1)c(C(=O)O)c(=O)n2Cc1ccccc1OC [6-Ethoxy-1-(2-methoxy-benzyl)-4-(4-methoxy-phenyl)-2-oxo-1,2-dihydro-quinoline-3-carboxylic acid]
450 nM | CCOc1ccc2c(c1)c(-c1ccc3c(c1)OCO3)c(C(=O)O)c(=O)n2Cc1ccccc1OC [4-Benzo[1,3]dioxol-5-yl-6-ethoxy-1-(2-methoxy-benzyl)-2-oxo-1,2-dihydro-quinoline-3-carboxylic acid]
200 nM | CCOc1ccc2c(c1)c(-c1ccc(OC)cc1)c(C(=O)O)c(=O)n2Cc1cc(OC)ccc1OC [1-(2,5-Dimethoxy-benzyl)-6-ethoxy-4-(4-methoxy-phenyl)-2-oxo-1,2-dihydro-quinoline-3-carboxylic acid]
